Test results taken from ChEMBL document CHEMBL4507285, “Data for DCP probe MRL-SYKi” (2021).

Assays:
[1] = target: Non-receptor tyrosine-protein kinase TNK1 (Homo sapiens) (UniProt Q13470); settings: Compound concentration 100.0 nM
[2] = target: Cytoplasmic tyrosine-protein kinase BMX (Homo sapiens) (UniProt P51813); settings: Compound concentration 100.0 nM
[3] = target: Serine/threonine-protein kinase BRSK2 (Homo sapiens) (UniProt Q8IWQ3); settings: Compound concentration 100.0 nM
[4] = target: Serine/threonine-protein kinase N1 (Homo sapiens) (UniProt Q16512); settings: Compound concentration 100.0 nM
[5] = target: Serine/threonine-protein kinase Chk2 (Homo sapiens) (UniProt O96017); settings: Compound concentration 100.0 nM
[6] = target: Cyclin-dependent kinase-like 1 (Homo sapiens) (UniProt Q00532); settings: Compound concentration 100.0 nM
[7] = target: Tyrosine-protein kinase CSK (Homo sapiens) (UniProt P41240); settings: Compound concentration 100.0 nM
[8] = target: Platelet-derived growth factor receptor beta (Homo sapiens) (UniProt P09619); settings: Compound concentration 100.0 nM
[9] = target: Tyrosine-protein kinase Tec (Homo sapiens) (UniProt P42680); settings: Compound concentration 100.0 nM
[10] = target: Calcium-dependent protein kinase 1 (Plasmodium falciparum) (UniProt P62344); settings: Compound concentration 100.0 nM
[11] = target: MAP kinase-interacting serine/threonine-protein kinase 1 (Homo sapiens) (UniProt Q9BUB5); settings: Compound concentration 100.0 nM
[12] = target: Testis-specific serine/threonine-protein kinase 3 (Homo sapiens) (UniProt Q96PN8); settings: Compound concentration 100.0 nM
[13] = target: Activin receptor type-1 (Homo sapiens) (UniProt Q04771); settings: Compound concentration 100.0 nM
[14] = target: Dual specificity protein kinase CLK1 (Homo sapiens) (UniProt P49759); settings: Compound concentration 100.0 nM
[15] = tested on: Mast/stem cell growth factor receptor Kit (Homo sapiens), P10721 [V559D,T670I]; settings: Compound concentration 100.0 nM
[16] = target: Tyrosine-protein kinase receptor UFO (Homo sapiens) (UniProt P30530); settings: Compound concentration 100.0 nM
[17] = target: Serine/threonine-protein kinase N2 (Homo sapiens) (UniProt Q16513); settings: Compound concentration 100.0 nM
[18] = target: 1-phosphatidylinositol 3-phosphate 5-kinase (Homo sapiens) (UniProt Q9Y2I7); settings: Compound concentration 100.0 nM
[19] = target: Cyclin-dependent kinase 8 (Homo sapiens) (UniProt P49336); settings: Compound concentration 100.0 nM
[20] = target: Serine/threonine-protein kinase mTOR (Homo sapiens) (UniProt P42345); settings: Compound concentration 100.0 nM
[21] = target: Tyrosine-protein kinase TXK (Homo sapiens) (UniProt P42681); settings: Compound concentration 100.0 nM
[22] = target: Serine/threonine-protein kinase pim-1 (Homo sapiens) (UniProt P11309); settings: Compound concentration 100.0 nM
[23] = target: Cyclin-dependent kinase-like 3 (Homo sapiens) (UniProt Q8IVW4); settings: Compound concentration 100.0 nM
[24] = target: Mitogen-activated protein kinase kinase kinase 9 (Homo sapiens) (UniProt P80192); settings: Compound concentration 100.0 nM
[25] = target: Serine/threonine-protein kinase 36 (Homo sapiens) (UniProt Q9NRP7); settings: Compound concentration 100.0 nM
[26] = target: Proto-oncogene tyrosine-protein kinase receptor Ret (Homo sapiens) (UniProt P07949); settings: Compound concentration 100.0 nM
[27] = target: Cyclin-dependent kinase 11A (Homo sapiens) (UniProt Q9UQ88); settings: Compound concentration 100.0 nM
[28] = target: Serine/threonine-protein kinase 32C (Homo sapiens) (UniProt Q86UX6); settings: Compound concentration 100.0 nM
[29] = target: Serine/threonine-protein kinase OSR1 (Homo sapiens) (UniProt O95747); settings: Compound concentration 100.0 nM
[30] = target: AP2-associated protein kinase 1 (Homo sapiens) (UniProt Q2M2I8); settings: Compound concentration 100.0 nM
[31] = target: Serine/threonine-protein kinase RIO1 (Homo sapiens) (UniProt Q9BRS2); settings: Compound concentration 100.0 nM
[32] = target: Calcium/calmodulin-dependent protein kinase kinase 2 (Homo sapiens) (UniProt Q96RR4); settings: Compound concentration 100.0 nM
[33] = target: Mitogen-activated protein kinase kinase kinase kinase 2 (Homo sapiens) (UniProt Q12851); settings: Compound concentration 100.0 nM
[34] = tested on: Fibroblast growth factor receptor 3 (Homo sapiens), P22607 [G697C]; settings: Compound concentration 100.0 nM
[35] = tested on: Receptor-type tyrosine-protein kinase FLT3 (Homo sapiens), P36888 [D835H]; settings: Compound concentration 100.0 nM
[36] = target: cAMP-dependent protein kinase catalytic subunit PRKX (Homo sapiens) (UniProt P51817); settings: Compound concentration 100.0 nM
[37] = target: Non-receptor tyrosine-protein kinase TYK2 (Homo sapiens) (UniProt P29597); settings: Compound concentration 100.0 nM
[38] = tested on: Tyrosine-protein kinase ABL1 (Homo sapiens), P00519 [F317L]; settings: Compound concentration 100.0 nM
[39] = target: SNF-related serine/threonine-protein kinase (Homo sapiens) (UniProt Q9NRH2); settings: Compound concentration 100.0 nM
[40] = target: Ribosomal protein S6 kinase alpha-4 (Homo sapiens) (UniProt O75676); settings: Compound concentration 100.0 nM
[41] = target: GABA-A receptor; anion channel (Rattus norvegicus) (UniProt O09028+P15431+P18506+P18508+P19969+P20236+P23574+P23576+P28471+P28473+P30191+P62813+P63079+P63138+Q91ZM7+Q9ES14); settings: Compound concentration 10.0 uM
[42] = target: Phosphatidylinositol 4,5-bisphosphate 3-kinase catalytic subunit gamma isoform (Homo sapiens) (UniProt P48736); settings: Compound concentration 100.0 nM
[43] = target: Mitogen-activated protein kinase kinase kinase 13 (Homo sapiens) (UniProt O43283); settings: Compound concentration 100.0 nM

cAMP-dependent protein kinase catalytic subunit PRKX (Homo sapiens), sequence (P51817 whole entry): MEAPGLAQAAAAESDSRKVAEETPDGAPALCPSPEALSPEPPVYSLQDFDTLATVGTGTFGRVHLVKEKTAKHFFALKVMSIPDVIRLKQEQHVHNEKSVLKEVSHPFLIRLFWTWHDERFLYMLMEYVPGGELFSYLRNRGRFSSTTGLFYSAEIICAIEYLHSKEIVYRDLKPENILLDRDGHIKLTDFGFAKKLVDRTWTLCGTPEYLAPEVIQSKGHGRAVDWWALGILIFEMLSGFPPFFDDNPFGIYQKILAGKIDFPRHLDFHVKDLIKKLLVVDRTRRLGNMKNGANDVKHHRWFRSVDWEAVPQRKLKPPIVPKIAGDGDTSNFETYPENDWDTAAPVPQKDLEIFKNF
Testis-specific serine/threonine-protein kinase 3 (Homo sapiens), sequence (Q96PN8 whole entry): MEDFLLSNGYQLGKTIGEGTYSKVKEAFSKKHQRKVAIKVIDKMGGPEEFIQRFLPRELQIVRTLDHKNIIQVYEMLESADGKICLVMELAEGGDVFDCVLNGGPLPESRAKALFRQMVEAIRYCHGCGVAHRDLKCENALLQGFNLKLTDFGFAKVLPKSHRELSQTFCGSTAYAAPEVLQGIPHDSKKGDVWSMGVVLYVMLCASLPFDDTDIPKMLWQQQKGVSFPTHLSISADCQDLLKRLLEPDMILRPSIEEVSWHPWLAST
Fibroblast growth factor receptor 3 (Homo sapiens), P22607 [G697C], sequence (P22607 whole entry G697C): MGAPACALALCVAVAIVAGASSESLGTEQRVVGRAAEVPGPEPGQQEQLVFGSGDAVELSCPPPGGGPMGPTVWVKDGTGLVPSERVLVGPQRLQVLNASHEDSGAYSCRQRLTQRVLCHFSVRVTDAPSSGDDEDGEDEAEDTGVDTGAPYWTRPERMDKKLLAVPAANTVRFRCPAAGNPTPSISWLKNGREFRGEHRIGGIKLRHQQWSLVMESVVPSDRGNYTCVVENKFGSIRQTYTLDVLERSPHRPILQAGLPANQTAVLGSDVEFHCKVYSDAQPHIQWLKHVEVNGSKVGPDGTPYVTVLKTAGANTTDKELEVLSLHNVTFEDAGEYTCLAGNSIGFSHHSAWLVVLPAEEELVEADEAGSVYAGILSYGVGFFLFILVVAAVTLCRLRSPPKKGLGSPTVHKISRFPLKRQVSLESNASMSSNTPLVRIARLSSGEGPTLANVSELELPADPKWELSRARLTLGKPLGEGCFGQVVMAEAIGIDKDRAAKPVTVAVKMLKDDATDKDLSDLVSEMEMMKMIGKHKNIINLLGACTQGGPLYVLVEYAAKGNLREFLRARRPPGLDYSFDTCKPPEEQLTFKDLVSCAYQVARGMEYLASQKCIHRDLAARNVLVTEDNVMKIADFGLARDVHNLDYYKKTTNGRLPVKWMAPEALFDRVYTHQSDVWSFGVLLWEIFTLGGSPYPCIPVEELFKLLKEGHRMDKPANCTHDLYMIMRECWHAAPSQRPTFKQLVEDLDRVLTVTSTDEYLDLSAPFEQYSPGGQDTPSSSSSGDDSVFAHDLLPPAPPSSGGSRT
SNF-related serine/threonine-protein kinase (Homo sapiens), sequence (Q9NRH2 whole entry): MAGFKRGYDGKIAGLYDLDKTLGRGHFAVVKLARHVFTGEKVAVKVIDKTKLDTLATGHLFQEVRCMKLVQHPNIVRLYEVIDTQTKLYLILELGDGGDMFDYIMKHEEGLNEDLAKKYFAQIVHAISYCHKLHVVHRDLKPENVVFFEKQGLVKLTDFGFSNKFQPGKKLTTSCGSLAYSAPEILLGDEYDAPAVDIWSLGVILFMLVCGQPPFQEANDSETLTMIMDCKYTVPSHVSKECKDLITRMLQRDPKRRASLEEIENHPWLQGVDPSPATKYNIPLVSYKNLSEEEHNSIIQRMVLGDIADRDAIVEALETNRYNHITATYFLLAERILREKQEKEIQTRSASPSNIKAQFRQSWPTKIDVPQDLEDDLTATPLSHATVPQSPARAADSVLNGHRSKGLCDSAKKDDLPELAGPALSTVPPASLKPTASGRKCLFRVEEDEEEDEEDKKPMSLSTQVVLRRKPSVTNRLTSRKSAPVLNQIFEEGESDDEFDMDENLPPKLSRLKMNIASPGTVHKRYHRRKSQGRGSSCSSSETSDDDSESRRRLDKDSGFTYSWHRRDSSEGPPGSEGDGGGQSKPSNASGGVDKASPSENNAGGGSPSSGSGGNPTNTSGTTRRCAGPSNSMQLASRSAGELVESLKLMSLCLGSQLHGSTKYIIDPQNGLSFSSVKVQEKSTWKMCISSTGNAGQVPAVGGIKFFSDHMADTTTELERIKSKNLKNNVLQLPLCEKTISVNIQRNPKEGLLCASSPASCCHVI
Calcium-dependent protein kinase 1 (Plasmodium falciparum), sequence (P62344 2-524 limits assumed): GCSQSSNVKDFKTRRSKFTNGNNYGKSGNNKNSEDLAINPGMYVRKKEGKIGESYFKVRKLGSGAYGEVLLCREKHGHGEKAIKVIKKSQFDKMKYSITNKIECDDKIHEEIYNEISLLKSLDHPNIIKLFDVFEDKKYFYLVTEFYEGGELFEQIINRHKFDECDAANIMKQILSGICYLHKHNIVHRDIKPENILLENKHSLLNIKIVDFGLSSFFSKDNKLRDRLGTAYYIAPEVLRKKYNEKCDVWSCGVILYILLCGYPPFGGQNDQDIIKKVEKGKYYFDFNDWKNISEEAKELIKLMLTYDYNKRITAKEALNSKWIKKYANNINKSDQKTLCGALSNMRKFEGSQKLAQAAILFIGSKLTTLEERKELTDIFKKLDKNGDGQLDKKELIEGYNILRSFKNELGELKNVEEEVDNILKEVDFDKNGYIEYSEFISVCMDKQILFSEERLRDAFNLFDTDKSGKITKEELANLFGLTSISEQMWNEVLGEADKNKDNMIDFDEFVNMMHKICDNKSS
Phosphatidylinositol 4,5-bisphosphate 3-kinase catalytic subunit gamma isoform (Homo sapiens), sequence (P48736 whole entry, looked up, canonical isoform): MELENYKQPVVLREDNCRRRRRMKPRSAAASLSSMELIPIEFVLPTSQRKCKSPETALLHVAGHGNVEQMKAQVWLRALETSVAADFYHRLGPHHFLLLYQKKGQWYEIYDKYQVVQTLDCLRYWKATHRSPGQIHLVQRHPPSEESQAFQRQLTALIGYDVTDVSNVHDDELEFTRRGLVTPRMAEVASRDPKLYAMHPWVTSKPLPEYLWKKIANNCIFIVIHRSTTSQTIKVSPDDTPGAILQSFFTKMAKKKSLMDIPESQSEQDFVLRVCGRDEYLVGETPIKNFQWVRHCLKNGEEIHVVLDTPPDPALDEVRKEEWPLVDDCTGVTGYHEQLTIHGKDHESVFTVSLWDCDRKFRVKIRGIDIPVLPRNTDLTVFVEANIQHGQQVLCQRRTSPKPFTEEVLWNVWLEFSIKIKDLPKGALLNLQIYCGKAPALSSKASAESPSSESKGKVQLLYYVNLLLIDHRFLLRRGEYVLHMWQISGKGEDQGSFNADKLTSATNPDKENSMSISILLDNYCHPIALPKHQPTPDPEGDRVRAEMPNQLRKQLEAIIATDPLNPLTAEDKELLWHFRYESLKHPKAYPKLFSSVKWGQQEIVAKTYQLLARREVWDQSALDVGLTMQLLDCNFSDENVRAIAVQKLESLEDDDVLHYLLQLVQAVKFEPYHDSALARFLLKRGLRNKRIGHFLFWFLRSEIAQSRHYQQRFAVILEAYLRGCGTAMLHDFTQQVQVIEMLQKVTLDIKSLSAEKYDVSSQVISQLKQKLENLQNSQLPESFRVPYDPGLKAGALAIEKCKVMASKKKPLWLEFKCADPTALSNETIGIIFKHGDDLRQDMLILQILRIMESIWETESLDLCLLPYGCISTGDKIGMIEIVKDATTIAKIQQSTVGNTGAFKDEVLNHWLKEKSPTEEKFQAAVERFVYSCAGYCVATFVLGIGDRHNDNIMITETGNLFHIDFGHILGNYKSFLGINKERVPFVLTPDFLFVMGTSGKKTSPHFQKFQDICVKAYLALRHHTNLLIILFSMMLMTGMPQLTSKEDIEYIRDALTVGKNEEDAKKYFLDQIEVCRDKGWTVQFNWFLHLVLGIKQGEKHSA
Tyrosine-protein kinase ABL1 (Homo sapiens), P00519 [F317L], sequence (P00519 whole entry F317L): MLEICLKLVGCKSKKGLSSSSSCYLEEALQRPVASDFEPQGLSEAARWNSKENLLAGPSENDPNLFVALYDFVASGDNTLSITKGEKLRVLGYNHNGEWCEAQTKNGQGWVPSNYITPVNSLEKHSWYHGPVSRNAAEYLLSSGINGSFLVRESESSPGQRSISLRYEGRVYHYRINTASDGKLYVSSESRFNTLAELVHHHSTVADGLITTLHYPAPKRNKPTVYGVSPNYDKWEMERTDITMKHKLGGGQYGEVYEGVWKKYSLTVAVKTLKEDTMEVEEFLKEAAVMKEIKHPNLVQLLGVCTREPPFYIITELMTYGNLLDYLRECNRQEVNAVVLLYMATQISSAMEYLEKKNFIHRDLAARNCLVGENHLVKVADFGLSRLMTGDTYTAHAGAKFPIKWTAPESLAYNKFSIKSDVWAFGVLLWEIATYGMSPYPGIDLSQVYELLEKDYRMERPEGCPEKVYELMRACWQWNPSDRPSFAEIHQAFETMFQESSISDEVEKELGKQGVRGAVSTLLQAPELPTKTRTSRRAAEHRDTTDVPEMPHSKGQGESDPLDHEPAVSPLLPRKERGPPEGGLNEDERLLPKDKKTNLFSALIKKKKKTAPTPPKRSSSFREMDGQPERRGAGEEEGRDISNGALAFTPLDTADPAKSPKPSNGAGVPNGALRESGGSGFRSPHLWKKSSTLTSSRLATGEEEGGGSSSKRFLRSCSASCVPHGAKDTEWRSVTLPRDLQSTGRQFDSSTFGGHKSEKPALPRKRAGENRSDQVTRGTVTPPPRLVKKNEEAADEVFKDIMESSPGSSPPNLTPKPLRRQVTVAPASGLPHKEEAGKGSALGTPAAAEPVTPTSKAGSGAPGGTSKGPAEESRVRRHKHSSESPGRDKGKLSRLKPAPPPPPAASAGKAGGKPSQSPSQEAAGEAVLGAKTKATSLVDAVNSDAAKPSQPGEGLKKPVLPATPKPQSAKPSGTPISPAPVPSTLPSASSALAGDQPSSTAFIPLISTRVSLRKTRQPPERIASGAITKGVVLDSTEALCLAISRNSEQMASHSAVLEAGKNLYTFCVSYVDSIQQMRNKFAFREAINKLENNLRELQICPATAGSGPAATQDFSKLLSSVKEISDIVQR

Cc1ccc(-c2cnc([C@@]3(O)CC[C@H](C(=O)O)C(C)(C)C3)s2)cc1Nc1cccc(C(F)(F)F)n1 [MRL-SYKi-NC]
inactive: residual activity [1] 100% | residual activity [2] 100% | residual activity [3] 60.7% | residual activity [4] 100% | residual activity [5] 100% | residual activity [6] 75.6% | residual activity [7] 82.3% | residual activity [8] 100% | residual activity [9] 91.2% | residual activity [10] 90.1% | residual activity [11] 75% | residual activity [12] 100% | residual activity [13] 100% | residual activity [14] 83.8% | residual activity [15] 99.7% | residual activity [16] 100% | residual activity [17] 96.3% | residual activity [18] 89.4% | residual activity [19] 78.7% | residual activity [20] 84.6% | residual activity [21] 88.4% | residual activity [22] 100% | residual activity [23] 100% | residual activity [24] 100% | residual activity [25] 95.5% | residual activity [26] 100% | residual activity [27] 100% | residual activity [28] 100% | residual activity [29] 69.9% | residual activity [30] 85.7% | residual activity [31] 100% | residual activity [32] 91.5% | residual activity [33] 100% | residual activity [34] 100% | residual activity [35] 100% | residual activity [36] 97.2% | residual activity [37] 100% | residual activity [38] 84.4% | residual activity [39] 90.1% | residual activity [40] 81.3% | inhibition [41] 19% | residual activity [42] 85.4% | residual activity [43] 100%

Cc1cc(Nc2nccc(C)n2)cc(-c2cnc([C@@]3(O)CC[C@H](C(=O)O)C(C)(C)C3)s2)c1 [MRL-SYKi]
inactive: residual activity [1] 100% | residual activity [2] 95.1% | residual activity [3] 100% | residual activity [4] 96.9% | residual activity [5] 100% | residual activity [6] 78.8% | residual activity [7] 100% | residual activity [8] 100% | residual activity [9] 75.2% | residual activity [10] 100% | residual activity [11] 94.8% | residual activity [12] 100% | residual activity [13] 59.3% | residual activity [14] 97.9% | residual activity [15] 83.9% | residual activity [16] 100% | residual activity [17] 100% | residual activity [18] 98.7% | residual activity [19] 100% | residual activity [20] 77.7% | residual activity [21] 64% | residual activity [22] 91.7% | residual activity [23] 100% | residual activity [24] 90.4% | residual activity [25] 94.5% | residual activity [26] 98.8% | residual activity [27] 86.1% | residual activity [28] 85.9% | residual activity [29] 79.9% | residual activity [30] 100% | residual activity [31] 100% | residual activity [32] 69.7% | residual activity [33] 100% | residual activity [34] 100% | residual activity [35] 70.7% | residual activity [36] 100% | residual activity [37] 68.6% | residual activity [38] 69.6% | residual activity [39] 100% | residual activity [40] 100% | inhibition [41] 25.9% | residual activity [42] 100% | residual activity [43] 100%
